According to patent US20150299120A1, “Spirohydantoin compounds and their use as selective androgen receptor modulators” (NOVARTIS AG, priority 2012, published 2015):
Read-outs that look alike come from different tables or passages of the source.

Biological target: T1, androgen receptor (AR) (Homo sapiens, UniProt P10275)
T1 construct: transfecting C2C12 cells with a plasmid containing full-length AR; expressed in transfected cells; host or cells: mouse myoblastic C2C12 cells (ATCC CRL-1772), transiently transfected with AR-FL in pcDNA 3.1(+)
T1 sequence (P10275 1-920): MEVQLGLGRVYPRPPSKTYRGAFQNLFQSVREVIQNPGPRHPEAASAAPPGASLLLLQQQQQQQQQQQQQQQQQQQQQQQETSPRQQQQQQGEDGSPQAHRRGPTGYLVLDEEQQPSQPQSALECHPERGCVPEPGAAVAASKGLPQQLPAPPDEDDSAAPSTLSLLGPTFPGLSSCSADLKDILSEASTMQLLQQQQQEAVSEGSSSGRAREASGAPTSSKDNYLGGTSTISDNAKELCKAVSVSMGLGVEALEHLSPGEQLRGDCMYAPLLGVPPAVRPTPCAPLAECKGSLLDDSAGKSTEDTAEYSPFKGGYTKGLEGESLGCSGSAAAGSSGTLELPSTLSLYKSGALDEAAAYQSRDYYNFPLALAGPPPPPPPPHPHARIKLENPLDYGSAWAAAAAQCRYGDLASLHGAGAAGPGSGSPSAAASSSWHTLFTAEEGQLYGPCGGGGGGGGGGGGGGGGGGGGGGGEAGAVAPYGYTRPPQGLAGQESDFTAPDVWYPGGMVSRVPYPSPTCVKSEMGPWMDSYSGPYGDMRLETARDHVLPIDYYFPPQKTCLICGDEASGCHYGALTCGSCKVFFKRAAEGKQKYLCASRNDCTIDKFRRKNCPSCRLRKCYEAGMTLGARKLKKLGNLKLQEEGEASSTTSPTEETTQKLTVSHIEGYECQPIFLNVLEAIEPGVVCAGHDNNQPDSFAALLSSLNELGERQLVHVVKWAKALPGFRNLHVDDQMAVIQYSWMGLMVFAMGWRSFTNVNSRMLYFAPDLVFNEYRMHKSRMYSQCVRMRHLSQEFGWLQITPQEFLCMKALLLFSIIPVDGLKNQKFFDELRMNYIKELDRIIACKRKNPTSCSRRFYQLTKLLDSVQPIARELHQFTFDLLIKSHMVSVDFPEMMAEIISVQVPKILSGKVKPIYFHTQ
Assay: Test 1: androgen receptor transcriptional activation (2XIDR17-luciferase) assay in transfected C2C12 cells
Assay type: cell-based
Details: for Emax: percentage activity relative to 1 μM DHT, read-out: Biological activity (C2C12 cell) Emax % (converted)
Method: A suitable assay to determine the ability of a ligand to transcriptionally activate androgen receptor (AR) is carried out using mouse myoblastic C2C12 cells. The assay involves transfecting C2C12 cells with a plasmid containing full-length AR along with an AR response element linked to luciferase (2XIDR17). The luminescence read-out at the end of the assay is measured using Victor 3 and is a direct measure of the transcriptional activity. The assay has been validated using the reference compound, BMS-564929, for which EC50 values have been reported in a similar set-up.
C2C12 cells were obtained from ATCC (Cat #CRL-1772) and maintained in DMEM modified to contain 4 mM L-glutamine, 4.5 g/L glucose, 1 mM sodium pyruvate and 1.5 g/L sodium bicarbonate and 10% FBS.
AR-FL in pcDNA 3.1(+) and 2XIDR17 in pGL4.26 plasmids prepared using Genelute plasmid miniprep kit from Sigma Cat #PLED35 Steadyglow Luciferase assay system Promega Cat #E2550
• C2C12 cells were seeded in a 96-well plate in DMEM (Dulbecco's Modified Eagle Medium) without phenol red and containing 10% CS-FBS (Charcoal-stripped Fetal Bovine Serum) at 8000 cells/well. • The next day, cells were transfected with an equimolar ratio of (Androgen Receptor-Full length) AR-FL and 2XIDR17-Luciferase at a total plasmid concentration of 200 ng/well using Lipofectamine 2000 following manufacturer's protocol. • For the transfection, 83 ng of AR-FL and 117 ng of 2XIDR17-Luciferase were in 12.5 μl of OptiMEM—Mix A. 0.4 μl of Lipofectamine 2000 was added to 12.5 μl of OptiMEM and incubated for 5 min at room temperature—Mix B. The two mixes A and B were mixed and incubated at room temperature for an additional fifteen minutes. An additional 50 μl of OptiMEM was added, gently mixed and this mixture was added to the cells in the 96-well plate. The above quantities are requirements per well of a 96-well plate. Master mixes were made for the entire plate, with proportional quantity of reagents being used. • 5 h after transfection, compounds were added to the wells in DMEM without phenol red and containing 10% CS-FBS, maintaining a final DMSO concentration of 0.5%. A typical dose response curve starts at 10 μM and includes a 7-point, log dilution, done in triplicates. • After overnight incubation with the compounds, 100 ul of working solution of Steadyglow reagent was added to the wells. • The plates were placed in a shaker for 15 min at the end of which the lysate containing luciferase was transferred to a white flat-bottom plate and read under a luminescence setting in Victor. • Background subtracted counts (Luminescence from DMSO control wells is considered the background) are used to calculate percentage activity, expressed relative to activity with 1 μM (Dihydrotestosterone) DHT (at least two sets of triplicates for 1 μM DHT are included per plate).
The EC50 curves for the compounds for 8 compound concentrations were fitted by the respective function using non-linear least-squares regression in Graphpad Prism 4.0 (Graphpad Software, San Diego, Calif., USA).

[1] = C2C12 cells, read-out: EC50 value in test 1
[2] = C2C12 cells, compound at 100 nM, relative to 1 μM DHT
[3] = C2C12 cells, compound at 5 μM, relative to 1 μM DHT
[4] = mouse myoblastic C2C12 cells transfected with full-length AR and 2XIDR17-luciferase, read-out: Biological activity (C2C12 cell) EC50

Row | Compound | Emax (C2C12, C2C12 cells) [%] | EC50 [4] [nM] | further results
1 | CCOCCN1C(=O)N(c2ccc(C#N)c(Cl)c2C)C(=O)C12CCCC2 [2-chloro-4-(1-(2-ethoxyethyl)-2,4-dioxo-1,3-diazaspiro[4.4]nonan-3-yl)-3-methylbenzonitrile] |  |  | EC50 [1]: > 30000 nM
2 | Cc1c(N2C(=O)N(Cc3ncc(CO)o3)C3(CCCC3)C2=O)ccc(C#N)c1Cl [Example 8.8, 2-chloro-4-(1-((5-(hydroxymethyl)oxazol-2-yl)methyl)-2,4-dioxo-1,3-diazaspiro[4.4]nonan-3-yl)-3-methylbenzonitrile] |  |  | % Biological activity (C2C12 cell) 100 nM [2]: 26%; % Biological activity (C2C12 cell) 5 μM [3]: 70%
3 | Cc1c(N2CC3(CCCC3O)OC2=O)ccc(C#N)c1Cl (stereo not drawn) [2-chloro-4-(6-hydroxy-2-oxo-1-oxa-3-azaspiro[4.4]nonan-3-yl)-3-methylbenzonitrile] |  |  | EC50 [1]: > 30000 nM
4 | CCN1C(=O)N(c2ccc(C#N)c(Cl)c2C)C(=O)C12CCCC2O (stereo not drawn) [1.3] | 79 |  | 
5 | Cc1c(N2C(=O)N(C)C3(CCCC3)C2O)ccc(C#N)c1Cl (stereo not drawn) [2-chloro-4-(4-hydroxy-1-methyl-2-oxo-1,3-diazaspiro[4.4]nonan-3-yl)-3-methylbenzonitrile] |  |  | EC50 [1]: > 30000 nM
6 | Cc1c(N2C(=O)N(CCOCC#N)C3(CCCC3)C2=O)ccc(C#N)c1Cl [Example 9.3, 2-chloro-4-(1-(2-(cyanomethoxy)ethyl)-2,4-dioxo-1,3-diazaspiro[4.4]nonan-3-yl)-3-methylbenzonitrile] | 91 | 19.9 ± 1.7 | 
7 | Cc1c(N2C(=O)N(CCCC#N)C3(CCCC3)C2=O)ccc(C#N)c1Cl [Example 9.4, 2-chloro-4-(1-(3-cyanopropyl)-2,4-dioxo-1,3-diazaspiro[4.4]nonan-3-yl)-3-methylbenzonitrile] | 90 | 26.5 | 
8 | Cc1c(N2C(=O)N(C)C3(CCCC3C)C2=O)ccc(C#N)c1Cl (stereo not drawn) [1.7] | 91 |  | 
9 | Cc1c(N2C(=O)N(CCCF)C3(CCCC3)C2=O)ccc(C#N)c1Cl [Example 9.9, 2-chloro-4-(1-(3-fluoropropyl)-2,4-dioxo-1,3-diazaspiro[4.4]nonan-3-yl)-3-methylbenzonitrile] |  |  | % Biological activity (C2C12 cell) 100 nM [2]: 27%; % Biological activity (C2C12 cell) 5 μM [3]: 52%
10 | Cc1c(N2C(=O)N(C)C3(CCCC3O)C2=O)ccc(C#N)c1Cl (stereo not drawn) [1.0] | 80 |  | 
11 | Cc1c(N2C(=O)N(CCOC(C)C)C3(CCCC3)C2=O)ccc(C#N)c1Cl [2-chloro-4-(1-(2-isopropoxyethyl)-2,4-dioxo-1,3-diazaspiro[4.4]nonan-3-yl)-3-methylbenzonitrile] |  |  | EC50 [1]: > 30000 nM
12 | Cc1ncc(CN2C(=O)N(c3ccc(C#N)c(Cl)c3C)C(=O)C23CCCC3)o1 [Example 8.10, 2-chloro-3-methyl-4-(1-((2-methyloxazol-5-yl)methyl)-2,4-dioxo-1,3-diazaspiro[4.4]nonan-3-yl)benzonitrile] |  |  | % Biological activity (C2C12 cell) 100 nM [2]: 20%; % Biological activity (C2C12 cell) 5 μM [3]: 66%
13 | Cc1c(N2C(=O)N(CCF)C3(CCCC3)C2=O)ccc(C#N)c1Cl [Example 9.0, 2-chloro-4-(1-(2-fluoroethyl)-2,4-dioxo-1,3-diazaspiro[4.4]nonan-3-yl)-3-methylbenzonitrile] | 99 |  | EC50 (Biological activity (C2C12 cell) EC50 (nM), mouse myoblastic C2C12 cells transfected with full-length AR and 2XIDR17-luciferase): 45.4 nM
14 | Cc1c(N2C(=O)N(C)C3(C=CCC3)C2=O)ccc(C#N)c1Cl (stereo not drawn) [1.5] | 66 |  | 
15 | Cc1c(N2C(=O)N(CC3CCOCC3)C3(CCCC3)C2=O)ccc(C#N)c1Cl [2-chloro-4-(2,4-dioxo-1-((tetrahydro-2H-pyran-4-yl)methyl)-1,3-diazaspiro[4.4]nonan-3-yl)-3-methylbenzonitrile] |  |  | percent activity relative to 1 μM DHT at a single concentration at 0.1 µM (C2C12, C2C12 cells, compound at 100 nM, relative to 1 μM DHT, read-out: % Biological activity (C2C12 cell) 100 nM): 5%; percent activity relative to 1 μM DHT at a single concentration at 5 µM (C2C12, C2C12 cells, compound at 5 μM, relative to 1 μM DHT, read-out: % Biological activity (C2C12 cell) 5 μM): 12%
16 | Cc1c(N2CC3(CCCC3O)N(C)C2=O)ccc(C#N)c1Cl (stereo not drawn) [2.0] | 76 | 2910 | 
17 | COC1N(c2ccc(C#N)c(Cl)c2C)C(=O)OC12CCCC2O (stereo not drawn) [Example 4.1, 2-chloro-4-(6-hydroxy-4-methoxy-2-oxo-1-oxa-3-azaspiro[4.4]nonan-3-yl)-3-methylbenzonitrile] | 40 | 2590 | 
18 | Cc1c(N2C(=O)N(CCCCC#N)C3(CCCC3)C2=O)ccc(C#N)c1Cl [Example 9.6, 2-chloro-4-(1-(4-cyanobutyl)-2,4-dioxo-1,3-diazaspiro[4.4]nonan-3-yl)-3-methylbenzonitrile] | 90 | 45 | 
19 | Cc1c(N2C(=O)N(C)C3(CCCC3F)C2=O)ccc(C#N)c1Cl (stereo not drawn) [1.4] | 60 |  | 
20 | Cc1c(N2C(=O)N(Cc3cnco3)C3(CCCC3)C2=O)ccc(C#N)c1Cl [Example 8.9, 2-chloro-3-methyl-4-(1-(oxazol-5-ylmethyl)-2,4-dioxo-1,3-diazaspiro[4.4]nonan-3-yl)benzonitrile] | 87 | 25 | 
21 | Cc1c(N2C(=O)N(CCOCC(C)C)C3(CCCC3)C2=O)ccc(C#N)c1Cl [2-chloro-4-(1-(2-isobutoxyethyl)-2,4-dioxo-1,3-diazaspiro[4.4]nonan-3-yl)-3-methylbenzonitrile] |  |  | EC50 [1]: > 30000 nM
22 | Cc1c(N2C(=O)N(C)C3(CCC(O)C3)C2=O)ccc(C#N)c1Cl (stereo not drawn) [Example 6.0, 2-chloro-4-(7-hydroxy-1-methyl-2,4-dioxo-1,3-diazaspiro[4.4]nonan-3-yl)-3-methylbenzonitrile] | 70 | 53 | 
23 | Cc1c(N2C(=O)N(C)C3(CCC(F)C3)C2=O)ccc(C#N)c1Cl (stereo not drawn) [6.1] | 99 |  | 
24 | Cc1c(N2C(=O)N(C)C3(CCOC3)C2=O)ccc(C#N)c1Cl (stereo not drawn) [10.0] | 60 |  | 
25 | Cc1c(N2C(=O)N(CCN3CCOCC3)C3(CCCC3)C2=O)ccc(C#N)c1Cl [2-chloro-3-methyl-4-(1-(2-morpholinoethyl)-2,4-dioxo-1,3-diazaspiro[4.4]nonan-3-yl)benzonitrile] |  |  | EC50 [1]: > 30000 nM
26 | Cc1c(N2C(=O)N(CCC#N)C3(CCCC3)C2=O)ccc(C#N)c1Cl [Example 9.8, 2-chloro-4-(1-(2-cyanoethyl)-2,4-dioxo-1,3-diazaspiro[4.4]nonan-3-yl)-3-methylbenzonitrile] | 85 | 169 ± 82 | 
